Where two headings read alike, the source gives them in different places.
Legend:
PI3Kα = PI3Kα (Homo sapiens, UniProt P42336); experiment: PI3Kα enzymology assay (in vitro enzyme inhibition); type: biochemical; conditions: PI3Kα 1.65 nM, PIP2 50 μM, ATP 25 μM, 60 mins
Description: PI3Kα Enzymology Assay Procedures
1. The agent's final concentrations and the compound formulation
1.1 PI3Kα (1.65 nM) kinase solution, substrate PIP2 50 μM, ATP 25 μM;
(§1) 1.2 4 folds kinase solution, 2 folds substrate and ATP solution;
(§2) 1.3 test compound 1 mM stock solution (final concentration 100 folds of DMSO solution).
(§3) 2.1 test compound 1 mM, diluted with DMSO 4 folds gradient, and then diluted with kinase buffer 25 folds;
(§4) 2.2 To each well in a 384-well plate was added 2.5 μL series diluted compounds;
2.3 To each well was added 2.5 μL 4 folds kinase solution;
(§5) 2.4 To each well was added 2.5 μL substrate/ATP solution;
(§6) 2.5 incubated for 60 mins;
2.6 Envision data reading: Lance signal ([…]).
The inhibition ratio %=(sample RLU−min)/(max−min)×100
wherein “max” is the control without the kinase; “min” is the DMSO control containing the enzyme but not containing the compound.
Data were input into GraphPad Prism 5.0 to plot a curve and obtain IC50.

mTOR = mTOR (Homo sapiens, UniProt P42345); experiment: mTOR enzymology assay (in vitro enzyme inhibition, ULight-4E-BP1 peptide, Lance signal); type: biochemical; conditions: mTOR 2.5 nM, ULight-4E-BP1 peptide 50 nM, ATP 10.8 uM, 60 mins
Description: mTOR Enzymology Assay Procedures
1. The agent's final concentrations and the compound solution preparation
1.1 mTOR (2.5 nM) kinase solution, substrate ULight-4E-BP1 peptide 50 nM, ATP 10.8 uM;
as §1, §2, §3, §4
2.3 To each well was added 2.5 μL 4 fold kinase solution;
as §5, §6
2.6 Envision data reading Lance signal (665 nM).
The inhibition ratio %=(Lance signal−min)/(max−min)×100
wherein “max” is the DMSO control containing the enzyme but not containing the compound; “min” is the control without the kinase.
Input the data into GraphPad Prism5.0 to plot a curve and obtain IC50.

U87MG cells = experiment: In vitro cellular inhibitory activity, XTT cell viability, U87MG; type: cell-based; conditions: Homo sapiens, U-87 MG, 72 hours
Description: (§7) 1. Formulating the agents and the compounds: Formulating the PBS, the XTT working liquor, the paclitaxel stock solution and gradient dilute solutions thereof, and the stock solution of test compound and gradient dilute solutions of test compounds.
(§8) 2. Culturing cells: Thawing cells, Passing cells, Freezing and preserving cells.
(§9) Preparing the cell suspension;
(§10) The cell suspension was added to a 96-well plate, 100 μL per well;
(§11) The plate was placed in the incubator and incubated at 37° C. under 5% CO2 overnight.
(§12) Drugs were added to the cell culture plate. The plate was placed in the CO2 incubator and incubated for 72 hours.
(§13) 5. Testing the cell viability with the XTT method
(§14) The XTT working solution was added to the plate. The plate was placed in the CO2 incubator for 2 hours. Then the plate was placed in a microplate reader to read the absorbance at 450 nm.
(§15) 1) % inhibition=(Absorbance (Vehicle)−Absorbance(Compound))/(Absorbance(Vehicle)−Absorbance(positive control)×100%;
(§16) 2) Data were input into GraphPad Prism 5.0 to plot a curve and obtain IC50.

A549 cells = experiment: In vitro cellular inhibitory activity, XTT cell viability, A549; type: cell-based; conditions: Homo sapiens, 72 hours
Description: as §7, §8, §9, §10, §11, §12, §13, §14, §15, §16

[1] = Pharmacokinetic assay in rat in vivo; conditions: Sprague-Dawley (SD), plasma, male SD rats; for half-life: read-out: T1/2 (half-life) (converted); for bioavailability: PO(4 mg/kg) vs IV, read-out: F(%) absolute bioavailability
Description: Male SD rats, each test substance, each administration, three rats were used, having a body weight of 200-250 g.
the present compounds: Compound 16, dissolved with 5% NMP+60% PEG400+35% sterile water for injection, other compounds, dissolved with 5% NMP+40% PEG400+55% sterile water for injection.
Blood collection: each of about 100 μL whole blood were collected at 0 h before administration (pre-administration), and at 0.083 h, 0.25 h, 0.5 h, 1 h, 2 h, 4 h, 6 h, 8 h and 24 h after administration. The collected blood samples were centrifuged at 8000 rpm in a high-speed centrifuge for 6 mins to separate the blood plasm. The separated plasm was freezing-preserved at −80° C. in a refrigerator.
Plasm sample analysis: The plasm sample was treated by a liquid-liquid extraction. 20 μL of the plasm was taken, subjected to a vortex at 1500 rpm for 10 mins, and then centrifuged at 12000 rpm for 5 mins. 400 μL of the supernatant was taken and blowed to dryness in the nitrogen gas. The resulting substance is re-dissolved in 200 μL methanol:water (1:1, V/V), and the solution was analyzed with LC-MS/MS.

[2] = IV(2 mg/kg), dosage in Table 3 (Compound 16: 0.45 mg/kg)

Sequence of PI3Kα (P42336 whole entry): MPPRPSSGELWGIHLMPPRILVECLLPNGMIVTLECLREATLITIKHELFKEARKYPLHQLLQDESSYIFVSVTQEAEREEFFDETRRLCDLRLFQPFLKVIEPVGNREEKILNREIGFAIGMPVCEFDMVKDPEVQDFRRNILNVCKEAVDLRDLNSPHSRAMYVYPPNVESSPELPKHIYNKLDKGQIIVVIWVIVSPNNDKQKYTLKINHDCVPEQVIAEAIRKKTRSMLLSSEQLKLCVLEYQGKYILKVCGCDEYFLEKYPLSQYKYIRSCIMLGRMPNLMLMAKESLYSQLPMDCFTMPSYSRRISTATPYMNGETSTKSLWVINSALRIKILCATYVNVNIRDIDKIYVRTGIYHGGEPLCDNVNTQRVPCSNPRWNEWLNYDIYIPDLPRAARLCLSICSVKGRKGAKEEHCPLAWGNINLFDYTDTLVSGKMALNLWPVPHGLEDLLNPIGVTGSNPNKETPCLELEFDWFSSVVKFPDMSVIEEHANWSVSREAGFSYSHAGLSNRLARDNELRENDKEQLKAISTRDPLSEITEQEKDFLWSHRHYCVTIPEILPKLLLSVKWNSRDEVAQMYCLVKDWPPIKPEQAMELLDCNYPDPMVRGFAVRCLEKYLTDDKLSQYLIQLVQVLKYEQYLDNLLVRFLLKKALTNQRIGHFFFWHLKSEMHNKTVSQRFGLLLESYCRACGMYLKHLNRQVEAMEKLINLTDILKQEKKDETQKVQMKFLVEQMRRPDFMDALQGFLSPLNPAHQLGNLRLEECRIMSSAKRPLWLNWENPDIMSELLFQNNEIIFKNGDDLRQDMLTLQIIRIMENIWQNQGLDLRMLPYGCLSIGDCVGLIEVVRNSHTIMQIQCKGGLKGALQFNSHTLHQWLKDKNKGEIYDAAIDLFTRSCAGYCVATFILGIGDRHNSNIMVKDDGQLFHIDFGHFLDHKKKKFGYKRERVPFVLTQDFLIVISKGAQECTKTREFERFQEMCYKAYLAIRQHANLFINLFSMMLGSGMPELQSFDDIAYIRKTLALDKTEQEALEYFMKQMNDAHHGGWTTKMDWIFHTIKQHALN
Sequence of PI3Kα (P27986 whole entry partner): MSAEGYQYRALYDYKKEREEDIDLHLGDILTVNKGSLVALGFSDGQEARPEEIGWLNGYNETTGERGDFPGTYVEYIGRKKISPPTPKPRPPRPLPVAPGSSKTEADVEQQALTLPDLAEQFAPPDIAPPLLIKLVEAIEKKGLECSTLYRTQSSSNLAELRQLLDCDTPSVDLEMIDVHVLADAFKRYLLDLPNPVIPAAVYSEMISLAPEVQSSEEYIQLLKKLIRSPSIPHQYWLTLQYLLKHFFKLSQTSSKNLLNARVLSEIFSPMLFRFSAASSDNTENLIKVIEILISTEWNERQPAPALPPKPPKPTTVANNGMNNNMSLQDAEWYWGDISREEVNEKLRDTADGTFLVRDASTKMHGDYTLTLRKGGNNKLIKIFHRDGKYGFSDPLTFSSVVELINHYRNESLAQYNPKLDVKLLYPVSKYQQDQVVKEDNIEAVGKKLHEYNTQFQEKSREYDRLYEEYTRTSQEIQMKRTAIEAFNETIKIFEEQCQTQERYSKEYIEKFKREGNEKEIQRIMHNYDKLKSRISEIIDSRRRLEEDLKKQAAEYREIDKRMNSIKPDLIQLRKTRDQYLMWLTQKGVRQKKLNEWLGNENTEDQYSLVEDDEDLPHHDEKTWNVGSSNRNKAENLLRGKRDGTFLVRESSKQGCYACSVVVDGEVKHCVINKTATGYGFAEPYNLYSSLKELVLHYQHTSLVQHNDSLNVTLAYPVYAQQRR

IC50 (PI3Kα) [nM] | IC50 (mTOR) [nM] | IC50 (U87MG cells) [nM] | IC50 (A549 cells) [nM] | AUC(0-t) [1, 2] [ng·h/mL] | half-life [1, 2] [h] | bioavailability [1] [%] | AUC(0-t) ([1]; PO(4 mg/kg), intragastric) [ng·h/mL] | half-life ([1]; PO(4 mg/kg), intragastric) [h] | SMILES
 |  | 29.3 |  |  |  |  |  |  | CC(C)(C#N)c1ccc(-n2c(=O)ccc3cnc4ccc(-c5ccc(N)nc5)nc4c32)cc1 [Compound 7, 2-(4-(2-(6-aminopyridin-3-yl)-9-oxopyrido[3,2-c][1,5]naphthyridin-10(9H)-yl)phenyl)-2-methylpropanenitrile]
2.4 | 0.47 | 26.4 |  | 711 | 0.62 | 49 | 707 | 1.44 | Nc1ncc(-c2ccc3ncc4ccc(=O)n(-c5cccc(C(F)(F)F)c5)c4c3n2)cn1 [Compound 13, 2-(2-aminopyrimidin-5-yl)-10-(3-(trifluoromethyl)phenyl)pyrido[3,2-c][1,5]naphthyridin-9(10H)-one]
8.8 | 4.4 |  |  |  |  | 42.3 | 445 | 3.49 | COc1ncc(-c2ccc3ncc4ccc(=O)n(-c5cccc(C(F)(F)F)c5)c4c3n2)cn1 [Compound 14, 2-(2-methoxypyrimidin-5-yl)-10-(3-(trifluoromethyl)phenyl)pyrido[3,2-c][1,5]naphthyridin-9(10H)-one]
6.1 | 3 | 12.7 | 20.2 | 441 | 0.71 | 65 | 550 | 2.36 | CC(=O)Nc1ccc(-c2ccc3ncc4ccc(=O)n(-c5cccc(C(F)(F)F)c5)c4c3n2)cn1 [Compound 15, N-(5-(9-oxo-10-(3-(trifluoromethyl)phenyl)-9,10-dihydropyrido[3,2-c][1,5]naphthyridin-2-yl)pyridin-2-yl)acetamide]
58 | 8.7 |  |  | 195 | 1.52 | 23 | 410 | 1.67 | N#Cc1ccc(-c2ccc3ncc4ccc(=O)n(-c5cccc(C(F)(F)F)c5)c4c3n2)cn1 [Compound 16, 5-(9-oxo-10-(3-(trifluoromethyl)phenyl)-9,10-dihydropyrido[3,2-c][1,5]naphthyridin-2-yl)-2-cyanopyridine]
45 | 5.3 |  |  | 723 | 0.61 | 20.8 | 212 | 5.68 | O=c1ccc2cnc3ccc(-c4c[nH]c5ncccc45)nc3c2n1-c1cccc(C(F)(F)F)c1 [Compound 17, 2-(1H-pyrrolo[2,3-b]pyridin-3-yl)-10-(3-(trifluoromethyl)phenyl)pyrido[3,2-c][1,5]naphthyridin-9(10H)-one]
3.6 | 2.6 |  |  |  |  |  |  |  | O=c1ccc2cnc3ccc(-c4ccc(CO)nc4)nc3c2n1-c1cccc(C(F)(F)F)c1 [Compound 18, 2-(6-(hydroxymethyl)pyridin-3-yl)-10-(3-(trifluoromethyl)phenyl)pyrido[3,2-c][1,5]naphthyridin-9(10H)-one]
158 | 2.3 |  |  |  |  |  |  |  | CN1CCN(c2ccc(-c3ccc4ncc5ccc(=O)n(-c6cccc(C(F)(F)F)c6)c5c4n3)cn2)CC1 [Compound 19, 2-(6-(4-methylpiperazin-1-yl)pyridin-3-yl)-10-(3-(trifluoromethyl)phenyl)pyrido[3,2-c][1,5]naphthyridin-9(10H)-one]
104 | 6 |  |  |  |  |  |  |  | O=c1ccc2cnc3ccc(-c4ccc(-n5cccn5)nc4)nc3c2n1-c1cccc(C(F)(F)F)c1 [Compound 20, 2-(6-(1H-pyrazol-1-yl)pyridin-3-yl)-10-(3-(trifluoromethyl)phenyl)pyrido[3,2-c][1,5]naphthyridin-9(10H)-one]
17 | 5 |  |  |  |  |  |  |  | CSc1ccc(-c2ccc3ncc4ccc(=O)n(-c5cccc(C(F)(F)F)c5)c4c3n2)cn1 [Compound 38, 2-(6-(methylthio)pyridin-3-yl)-10-(3-(trifluoromethyl)phenyl)pyrido[3,2-c][1,5]naphthyridin-9(10H)-one]
2.5 | 0.89 | 8.4 | 6.8 |  |  |  |  |  | O=c1ccc2cnc3ccc(-c4cnc5[nH]ccc5c4)nc3c2n1-c1cccc(C(F)(F)F)c1 [Compound 39, 2-(1H-pyrrolo[2,3-b]pyridin-5-yl)-10-(3-(trifluoromethyl)phenyl)pyrido[3,2-c][1,5]naphthyridin-9(10H)-one]
 |  | 12.4 | 14.7 | 259 |  | 22.6 | 104 |  | Nc1ccc(-c2ccc3ncc4ccc(=O)n(-c5cccc(C(F)(F)F)c5)c4c3c2)cn1 [Torin-2, 9-(6-Aminopyridin-3-yl)-1-(3-(trifluoromethyl)phenyl)benzo[h][1,6]naphthyridin-2(1H)-one, reference compound]

SMILES | IC50 (PI3Kα) [nM] | IC50 (mTOR) [nM] | IC50 (U87MG cells) [nM] | IC50 (A549 cells) [nM] | AUC(0-t) [1, 2] [ng·h/mL] | half-life [1, 2] [h] | bioavailability [1] [%] | AUC(0-t) ([1]; PO(4 mg/kg), intragastric) [ng·h/mL] | half-life ([1]; PO(4 mg/kg), intragastric) [h]
Nc1ccc(-c2ccc3ncc4ccc(=O)n(-c5cccc(C(F)(F)F)c5)c4c3n2)cn1 [Compound 1, 2-(6-aminopyridin-3-yl)-10-(3-(trifluoromethyl)phenyl)pyrido[3,2-c][1,5]naphthyridin-9(10H)-one] | 3.2 | 0.87 | 8.9 | 11.9 | 1310 | 1.79 | 43.7 | 1030 | 2.78

— patent publication US9475812B2, “Pyridonaphthyridine type dual PI3K and mTOR inhibitor and its preparation and use” (Xuanzhu Pharma Co., Ltd., priority 2011, dated 2016)
